Where two headings read alike, the source gives them in different places.
How the values were obtained:
Format in all cases: cell-based
human SCD1 [1] = target: human SCD1 (Homo sapiens, UniProt O00767); assay: Growth inhibition of yeast strain expressing human SCD1 as sole desaturase (OLE1 deleted), OD600 readout
human SCD5 [2] = target: human SCD5 (Homo sapiens, UniProt Q86SK9); assay: Growth inhibition of yeast strain expressing human SCD5 as sole desaturase (OLE1 deleted), OD600 readout
human SCD1 [3] = target: T1, human SCD1 (Homo sapiens, UniProt O00767); assay: Growth inhibition of yeast strain expressing human SCD1 as sole desaturase (OLE1 deleted), OD600 readout; details: yeast strain expressing human SCD1 as sole desaturase; growth (OD600) after 40 h at 30° C.; read-out: SCD1 IC50
T1 construct: expressed in transfected cells; host or cells: yeast strain with OLE1 deleted, plasmid-borne human SCD1 (selected in SD-Ura)
T1 sequence (O00767 1-359): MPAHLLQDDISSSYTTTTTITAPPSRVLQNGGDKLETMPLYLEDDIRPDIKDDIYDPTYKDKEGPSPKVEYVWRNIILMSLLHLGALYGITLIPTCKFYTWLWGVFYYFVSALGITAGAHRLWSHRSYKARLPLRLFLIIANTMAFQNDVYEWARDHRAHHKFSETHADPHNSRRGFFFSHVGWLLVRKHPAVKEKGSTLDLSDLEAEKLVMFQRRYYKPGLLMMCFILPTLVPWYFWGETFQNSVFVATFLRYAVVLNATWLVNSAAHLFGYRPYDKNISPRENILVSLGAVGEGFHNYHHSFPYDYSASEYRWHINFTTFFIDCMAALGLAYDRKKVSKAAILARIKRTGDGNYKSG

human SCD5 [4] = target: T2, human SCD5 (Homo sapiens, UniProt Q86SK9); assay: Growth inhibition of yeast strain expressing human SCD5 as sole desaturase (OLE1 deleted), OD600 readout
T2 construct: expressed in transfected cells; host or cells: yeast strain with OLE1 deleted, plasmid-borne human SCD5 (selected in SD-Ura)
T2 sequence (Q86SK9 1-330): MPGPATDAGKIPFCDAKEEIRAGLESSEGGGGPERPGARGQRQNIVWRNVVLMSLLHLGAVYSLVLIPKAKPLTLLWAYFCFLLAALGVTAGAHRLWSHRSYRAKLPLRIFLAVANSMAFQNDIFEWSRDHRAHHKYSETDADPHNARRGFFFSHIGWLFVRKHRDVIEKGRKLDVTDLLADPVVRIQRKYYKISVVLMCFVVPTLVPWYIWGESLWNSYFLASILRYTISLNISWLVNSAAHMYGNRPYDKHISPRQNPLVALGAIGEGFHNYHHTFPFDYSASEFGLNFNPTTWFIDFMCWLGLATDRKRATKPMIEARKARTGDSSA

[5] = yeast strain expressing human SCD5 as sole desaturase, growth (OD600) after 40 h at 30° C., read-out: SCD5 IC50

IC50 (human SCD1 [1]) [nM]	IC50 (human SCD5 [2]) [nM]	IC50 (human SCD1 [3]) [nM]	IC50 (human SCD5 [4]; [5]) [nM]	Structure (SMILES)	IC50 (human SCD5 [4]; SCD5 IC50) [nM]
590	190	–	–	CN1N=C(C(=O)Nc2ncc(Cc3ccccc3)s2)CCC1=O	–
–	20100	> 45000	–	CN1N=C(C(=O)Nc2ncc(Cc3cccc(Cl)c3)cn2)CCC1=O [Compound 175, N-(5-(3-chlorobenzyl)pyrimidin-2-yl)-1-methyl-6-oxo-1,4,5,6-tetrahydropyridazine-3-carboxamide]	–
–	–	110	10	Cn1nc(C(=O)Nc2ccc(Cc3cc(F)cc(Cl)c3)cn2)ccc1=O [Example 40, N-(5-(3-chloro-5-fluorobenzyl)pyridin-2-yl)-1-methyl-6-oxo-1,6-dihydropyridazine-3-carboxamide]	–
–	–	14100	780	COc1cccc(Cc2ccc(NC(=O)c3ccc(=O)n(C)n3)nc2)c1 [Example 44, N-(5-(3-methoxybenzyl)pyridin-2-yl)-1-methyl-6-oxo-1,6-dihydropyridazine-3-carboxamide]	–
–	–	15400	430	Cn1nc(C(=O)Nc2ccc(Cc3cccc(F)c3)cn2)ccc1=O [Example 45, N-(5-(3-fluorobenzyl)pyridin-2-yl)-1-methyl-6-oxo-1,6-dihydropyridazine-3-carboxamide]	–
–	–	1100	130	Cn1nc(C(=O)Nc2ccc(Cc3cccc(Cl)c3)cn2)ccc1=O [Example 47, N-(5-(3-chlorobenzyl)pyridin-2-yl)-1-methyl-6-oxo-1,6-dihydropyridazine-3-carboxamide]	–
–	–	150	10	Cn1cc(C(=O)Nc2ccc(Cc3cccc(Cl)c3)cn2)ccc1=O [Example 48, N-(5-(3-chlorobenzyl)pyridin-2-yl)-1-methyl-6-oxo-1,6-dihydropyridine-3-carboxamide]	–

Structure (SMILES)	IC50 (human SCD1 [1]) [nM]	IC50 (human SCD5 [2]) [nM]	IC50 (human SCD1 [3]) [nM]	IC50 (human SCD5 [4]; [5]) [nM]	IC50 (human SCD5 [4]; SCD5 IC50) [nM]
Cn1nc(C(=O)Nc2ccc(Cc3ccc(C(F)(F)F)cc3)cn2)ccc1=O [Example 39, 1-methyl-6-oxo-N-(5-(4-(trifluoromethyl)benzyl)pyridin-2-yl)-1,6-dihydropyridazine-3-carboxamide]	–	–	> 45000	920	–
Cn1nc(C(=O)Nc2ccc(Cc3cc(F)c(F)c(F)c3)cn2)ccc1=O [Example 41, 1-methyl-6-oxo-N-(5-(3,4,5-trifluorobenzyl)pyridin-2-yl)-1,6-dihydropyridazine-3-carboxamide]	–	–	190	10	–
Cn1nc(C(=O)Nc2ccc(Cc3cc(F)cc(C#N)c3)cn2)ccc1=O [Example 42, N-(5-(3-cyano-5-fluorobenzyl)pyridin-2-yl)-1-methyl-6-oxo-1,6-dihydropyridazine-3-carboxamide]	–	–	2410	80	–
Cn1nc(C(=O)Nc2ccc(Cc3ccc(F)c(Cl)c3)cn2)ccc1=O [Example 46, N-(5-(3-chloro-4-fluorobenzyl)pyridin-2-yl)-1-methyl-6-oxo-1,6-dihydropyridazine-3-carboxamide]	–	–	60	10	–
COc1ccc(Cc2ccc(NC(=O)c3ccc(=O)n(C)c3)nc2)cc1F [Example 49, N-(5-(3-fluoro-4-methoxybenzyl)pyridin-2-yl)-1-methyl-6-oxo-1,6-dihydropyridine-3-carboxamide]	–	–	> 45000	–	21200

Source: US20230078764A1 (Yumanity Therapeutics, Inc., priority 2019, published 2023)
